Data taken from patent US7727960B2, “C5a receptor antagonists” (Jerini AG, priority 2003, dated 2010).
Where two headings read alike, the source gives them in different places. Positions of bridges follow the written chain, without caps; N, C: chain ends. Non-standard residues stand in square brackets, D forms with d. Residues, ends and D or L forms follow the SMILES beside them. No end group written: not given here. *: point of attachment. Phe(4-guanidino) = N=C(N)Nc1ccc(C[C@H](N)C(=O)O)cc1; X3 = O=C1CNC(=O)N1[C@@H](Cc1ccccc1)C(=O)*; X4 = O=C1CCC(=O)N1[C@@H](Cc1ccccc1)C(=O)*; Phe(4-NH2) = Nc1ccc(C[C@H](N)C(=O)O)cc1; Phe(4-Me) = Cc1ccc(C[C@H](N)C(=O)O)cc1; 2Nal = N[C@@H](Cc1ccc2ccccc2c1)C(=O)O; His(τ-Me) = Cn1cnc(C[C@H](N)C(=O)O)c1; Acetyl(4-pyridyl) = O=C(Cc1ccncc1)*; Bta = N[C@@H](Cc1csc2ccccc12)C(=O)O; d(hLeu) = CC(C)CC[C@@H](N)C(=O)O; 4Pal = N[C@@H](Cc1ccncc1)C(=O)O; 2Thi = N[C@@H](Cc1cccs1)C(=O)O; dCha = N[C@H](CC1CCCCC1)C(=O)O; Chg = N[C@H](C(=O)O)C1CCCCC1; hLeu = CC(C)CC[C@H](N)C(=O)O; dNle = CCCC[C@@H](N)C(=O)O; Nle = CCCC[C@H](N)C(=O)O; Orn = NCCC[C@H](N)C(=O)O; Pra = C#CC[C@H](N)C(=O)O; Nva = CCC[C@H](N)C(=O)O

T1: human C5aR (CD88) (Homo sapiens, UniProt P21730)
T1 construct: expressed in transfected cells; host or cells: rat basophilic leukemia cells (RBL)
T1 sequence (P21730 1-350): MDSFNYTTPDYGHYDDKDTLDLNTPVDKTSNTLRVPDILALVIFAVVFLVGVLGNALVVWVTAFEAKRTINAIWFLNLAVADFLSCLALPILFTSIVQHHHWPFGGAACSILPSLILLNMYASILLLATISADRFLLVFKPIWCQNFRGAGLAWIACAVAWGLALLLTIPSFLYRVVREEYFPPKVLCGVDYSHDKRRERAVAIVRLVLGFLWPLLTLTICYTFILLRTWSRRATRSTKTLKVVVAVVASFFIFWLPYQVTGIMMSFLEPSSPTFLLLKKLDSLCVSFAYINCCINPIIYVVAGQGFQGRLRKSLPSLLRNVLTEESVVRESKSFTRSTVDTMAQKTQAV

T2: human C5aR (CD88) (human, UniProt P21730 1-350)
T2 sequence (looked up): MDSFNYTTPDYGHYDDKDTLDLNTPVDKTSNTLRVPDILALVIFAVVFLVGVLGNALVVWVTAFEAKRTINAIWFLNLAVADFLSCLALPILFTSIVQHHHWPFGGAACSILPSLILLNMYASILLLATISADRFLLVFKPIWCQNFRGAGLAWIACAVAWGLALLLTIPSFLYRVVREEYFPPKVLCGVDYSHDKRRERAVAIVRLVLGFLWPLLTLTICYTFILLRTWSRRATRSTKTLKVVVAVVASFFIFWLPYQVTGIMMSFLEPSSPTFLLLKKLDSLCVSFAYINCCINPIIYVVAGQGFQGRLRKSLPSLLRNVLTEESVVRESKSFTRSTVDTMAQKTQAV


Legend:
human C5aR (CD88) [1] = target: T1, human C5aR (CD88); assay: Determination of the IC50 value in an enzyme release assay (functional assay, antagonistic activity); assay type: cell-based; details: for IC50-value compared to compound 40 (in words): arginine replaced by hydrophobic substitutions; for IC50: antagonistic activity, enzyme release assay in RBL cells expressing human C5aR (CD88), read-out: activity (group)
human C5aR (CD88) [2] = target: T1, human C5aR (CD88); assay: Determination of EC50 values in an enzyme release assay (agonistic activity, no C5a added); assay type: cell-based; details: cellular assay, up to a concentration of at least 1430 nM
Description: The determination of the EC50 value was performed in a way similar to the procedure described in example 11, with the only exception that 30 μl of the compound to be tested were mixed with 75 μl of the cell suspension described in example 11. There was no preincubation or addition of C5a for stimulation of the enzyme release.

human C5aR (CD88) [3] = target: T2, human C5aR (CD88); assay: cell-based or functional assay
[4] = noteworthy = IC50 of less than 200 nM in the functional assay

Molecule	inhibitory activity (in words) (human C5aR (CD88) [1]; [4])	IC50 activity group, enzyme release assay (human C5aR (CD88) [3])	further results
CC(=O)N[C@@H](Cc1ccccc1)C(=O)N[C@H]1CCCNC(=O)[C@H](Cc2ccc(N)cc2)NC(=O)[C@H](Cc2c[nH]c3ccccc23)NC(=O)[C@@H](CC2CCCCC2)NC(=O)[C@@H]2CCCN2C1=O [Compound 14, Ac-Phe-[Orn-Pro-cha-Trp-Paf]] (Ac-F[Orn]P[dCha]W[Phe(4-NH2)]; lactam 2-C)	noteworthy inhibitory activity	–	–
CC(=O)N[C@@H](Cc1ccccc1)C(=O)N[C@H]1CCCNC(=O)[C@H](Cc2cn(C)cn2)NC(=O)[C@H](Cc2c[nH]c3ccccc23)NC(=O)[C@@H](CC2CCCCC2)NC(=O)[C@@H]2CCCN2C1=O [Compound 20, Ac-Phe-[Orn-Pro-cha-Trp-Ecr]] (Ac-F[Orn]P[dCha]W[His(τ-Me)]; lactam 2-C)	noteworthy inhibitory activity	–	–
CSCC[C@@H]1NC(=O)[C@H](Cc2c[nH]c3ccccc23)NC(=O)[C@@H](CC2CCCCC2)NC(=O)[C@@H]2CCCN2C(=O)[C@@H](NC(=O)[C@H](Cc2ccccc2)NC(C)=O)CCCNC1=O [Compound 29, Ac-Phe-[Orn-Pro-cha-Trp-Met]] (Ac-F[Orn]P[dCha]WM; lactam 2-C)	noteworthy inhibitory activity	–	IC50-value compared to compound 40 (in words) (human C5aR (CD88) [1]): without a significant increase of the IC50-value
CCC[C@@H]1NC(=O)[C@H](Cc2c[nH]c3ccccc23)NC(=O)[C@@H](CC2CCCCC2)NC(=O)[C@@H]2CCCN2C(=O)[C@@H](NC(=O)[C@H](Cc2ccccc2)NC(C)=O)CCCNC1=O [Compound 31, Ac-Phe-[Orn-Pro-cha-Trp-Nva]] (Ac-F[Orn]P[dCha]W[Nva]; lactam 2-C)	noteworthy inhibitory activity	–	IC50-value compared to compound 40 (in words) (human C5aR (CD88) [1]): without a significant increase of the IC50-value
CC(=O)N[C@@H](Cc1ccccc1)C(=O)N[C@H]1CCCNC(=O)[C@H](CCC(C)C)NC(=O)[C@H](Cc2c[nH]c3ccccc23)NC(=O)[C@@H](CC2CCCCC2)NC(=O)[C@@H]2CCCN2C1=O [Compound 32, Ac-Phe-[Orn-Pro-cha-Trp-Hle]] (Ac-F[Orn]P[dCha]W[hLeu]; lactam 2-C)	noteworthy inhibitory activity	–	IC50-value compared to compound 40 (in words) (human C5aR (CD88) [1]): without a significant increase of the IC50-value
CCSC[C@@H]1NC(=O)[C@H](Cc2c[nH]c3ccccc23)NC(=O)[C@@H](CC2CCCCC2)NC(=O)[C@@H]2CCCN2C(=O)[C@@H](NC(=O)[C@H](Cc2ccccc2)NC(C)=O)CCCNC1=O [Compound 34, Ac-Phe-[Orn-Pro-cha-Trp-Ebd]] (Ac-F[Orn]P[dCha]WC(Et); lactam 2-C)	noteworthy inhibitory activity	–	IC50-value compared to compound 40 (in words) (human C5aR (CD88) [1]): without a significant increase of the IC50-value
C#CC[C@@H]1NC(=O)[C@H](Cc2c[nH]c3ccccc23)NC(=O)[C@@H](CC2CCCCC2)NC(=O)[C@@H]2CCCN2C(=O)[C@@H](NC(=O)[C@H](Cc2ccccc2)NC(C)=O)CCCNC1=O [Compound 35, Ac-Phe-[Orn-Pro-cha-Trp-Eag]] (Ac-F[Orn]P[dCha]W[Pra]; lactam 2-C)	noteworthy inhibitory activity	–	IC50-value compared to compound 40 (in words) (human C5aR (CD88) [1]): without a significant increase of the IC50-value
CC(=O)N[C@@H](Cc1ccccc1)C(=O)N[C@H]1CCCNC(=O)[C@H](Cc2ccc(C)cc2)NC(=O)[C@H](Cc2c[nH]c3ccccc23)NC(=O)[C@@H](CC2CCCCC2)NC(=O)[C@@H]2CCCN2C1=O [Compound 36, Ac-Phe-[Orn-Pro-cha-Trp-Pmf]] (Ac-F[Orn]P[dCha]W[Phe(4-Me)]; lactam 2-C)	noteworthy inhibitory activity	–	IC50-value compared to compound 40 (in words) (human C5aR (CD88) [1]): without a significant increase of the IC50-value
CC(=O)N[C@@H](Cc1ccccc1)C(=O)N[C@H]1CCCNC(=O)[C@H](Cc2ccc3ccccc3c2)NC(=O)[C@H](Cc2c[nH]c3ccccc23)NC(=O)[C@@H](CC2CCCCC2)NC(=O)[C@@H]2CCCN2C1=O [Compound 37, Ac-Phe-[Orn-Pro-cha-Trp-2Ni]] (Ac-F[Orn]P[dCha]W[2Nal]; lactam 2-C)	noteworthy inhibitory activity	–	IC50-value compared to compound 40 (in words) (human C5aR (CD88) [1]): without a significant increase of the IC50-value
CC(=O)N[C@@H](Cc1ccccc1)C(=O)N[C@H]1CCCNC(=O)[C@H](Cc2cccs2)NC(=O)[C@H](Cc2c[nH]c3ccccc23)NC(=O)[C@@H](CC2CCCCC2)NC(=O)[C@@H]2CCCN2C1=O [Compound 38, Ac-Phe-[Orn-Pro-cha-Trp-Thi]] (Ac-F[Orn]P[dCha]W[2Thi]; lactam 2-C)	noteworthy inhibitory activity	–	IC50-value compared to compound 40 (in words) (human C5aR (CD88) [1]): without a significant increase of the IC50-value
CCCC[C@@H]1NC(=O)[C@H](Cc2c[nH]c3ccccc23)NC(=O)[C@@H](CC2CCCCC2)NC(=O)[C@H](CO)NC(=O)[C@@H](NC(=O)[C@@H](N)Cc2ccccc2)CCCNC1=O [Compound 44, H-Phe-[Orn-Ser-cha-Trp-Nle]] (H-F[Orn]S[dCha]W[Nle]; lactam 2-C)	–	–	agonistic activity (in words) (human C5aR (CD88) [2]): pure antagonists
CC(=O)N[C@@H](C)C(=O)N[C@H]1CCCNC(=O)[C@H](CCCN=C(N)N)NC(=O)[C@H](Cc2c[nH]c3ccccc23)NC(=O)[C@@H](CC2CCCCC2)NC(=O)[C@@H]2CCCN2C1=O [Compound 45] (Ac-A[Orn]P[dCha]WR; lactam 2-C)	–	–	IC50 (human C5aR (CD88) [1]): > 2000 nM
NCCC[C@H](NC(=O)[C@H](Cc1ccccc1)N1C(=O)CNC1=O)C(=O)N1CCC[C@H]1C(=O)N[C@H](CC1CCCCC1)C(=O)N[C@@H](Cc1csc2ccccc12)C(=O)N[C@@H](Cc1ccccc1)C(N)=O [Compound 130, (—CO—CH2—NH—CO—)-Phe-Orn-Pro-cha-Bta-Phe-NH2] (X3-[Orn]P[dCha][Bta]F-NH2)	–	–	IC50 (human C5aR (CD88) [1]): 50 to 200 nM
NCCC[C@H](NC(=O)[C@H](Cc1ccccc1)N1C(=O)CCC1=O)C(=O)N1CCC[C@H]1C(=O)N[C@H](CC1CCCCC1)C(=O)N[C@@H](Cc1csc2ccccc12)C(=O)N[C@@H](Cc1ccccc1)C(N)=O [Compound 133, (—CO—CH2—CH2—CO—)-Phe-Orn-Pro-cha-Bta-Phe-NH2] (X4-[Orn]P[dCha][Bta]F-NH2)	–	–	IC50 (human C5aR (CD88) [1]): 200 to 2000 nM
Ac-Phe-[Orn-Hyp(COCH2OCH2CH2OCH2CH2OCH3)-cha-Trp-Phe]	noteworthy inhibitory activity	–	–
Ac-Phe-[Orn-Hyp(CONHCH2COH(OH)CH2OH)-cha-Trp-Phe]	–	–	inhibitory activity (in words) (human C5aR (CD88) [1]): noteworthy inhibitory activity
Ac-Phe-[Orn-Pro-cha-Trp-Ppa] (Ac-F[Orn]P[dCha]W[4Pal]; lactam 2-C (inferred))	noteworthy inhibitory activity	–	–
Ac-Phe-[Orn-Ser-cha-Trp-Phe]	noteworthy inhibitory activity	–	–
FXPXWX (not fully specified; Ac-; Orn2; cha4 (D); Har6; cyclic [2-6]) [Ac-Phe-[Orn-Pro-cha-Trp-Har]]	–	≤ 2000 nM	–
FXPXWX (not fully specified; Ac-; Orn2; cha4 (D); Cit6; cyclic [2-6]) [Ac-Phe-[Orn-Pro-cha-Trp-Cit]]	–	≤ 2000 nM	–
Ac-F[Orn]P[dCha]W[Chg] (lactam (positions not given here); not fully specified (bridges); printed as Ac-Phe-[Orn-Pro-cha-Trp-Chg]) [Ac-Phe-[Orn-Pro-cha-Trp-Chg]]	–	≤ 200 nM	–
Ac-F[Orn]P[d(hLeu)]W[Nle] (lactam 2-C (inferred)) [Ac-Phe-[Orn-Pro-hle-Trp-Nle]]	–	≤ 50 nM	–
{Acetyl(4-pyridyl)}-F[Orn]P[dCha]W[Nle] (lactam 2-C (inferred)) [Fbi-Phe-[Orn-Pro-cha-Trp-Nle]]	–	≤ 200 nM	–
Ac-F[Orn]P[dCha]W[dNle] (lactam 2-C (inferred)) [Ac-Phe-[Orn-Pro-cha-Trp-nle]]	–	≤ 200 nM	–
Ac-F[Orn]P[dCha]WF (lactam (positions not given here); not fully specified (bridges); printed as Ac-Phe-[Orn-Pro-cha-Trp-Phe]) [Ac-Phe-[Orn-Pro-cha-Trp-Phe]]	–	≤ 50 nM	–
Ac-F[Orn]P[dCha]W[Phe(4-guanidino)] (lactam (positions not given here); not fully specified (bridges); printed as Ac-Phe-[Orn-Pro-cha-Trp-Guf]) [Ac-Phe-[Orn-Pro-cha-Trp-Guf]]	–	≤ 2000 nM	–
Ac-F[Orn]P[dCha]WL (lactam (positions not given here); not fully specified (bridges); printed as Ac-Phe-[Orn-Pro-cha-Trp-Leu]) [Ac-Phe-[Orn-Pro-cha-Trp-Leu]]	–	≤ 200 nM	–
